The nature of data set [1]: Metabolic stability in mouse liver microsomes assessed as parent compound remaining at 1 uM measured upto 60 mins in presence of NADPH by LC-MS/MS analysis. It is filed as ADME, Microsome. The conditions noted are these: read-out: Stabilty.
The nature of data set [2]: Metabolic stability in rat liver microsomes assessed as parent compound remaining at 1 uM measured upto 60 mins in presence of NADPH by LC-MS/MS analysis. It is filed as ADME, Microsome. The conditions noted are these: read-out: Stabilty.
Data set [3] is described as follows: Metabolic stability in human liver microsomes assessed as parent compound remaining at 1 uM measured upto 60 mins in presence of NADPH by LC-MS/MS analysis. The conditions noted are these: read-out: Stabilty. It is filed as ADME, Microsome. Background: Liver microsomes are a subcellular fraction often used to study metabolism.
Data set [4] in a line: in vitro. The conditions noted are these: human, Caco-2.

Bounds are passed on as bounds.

What is called Papp A→B is how fast a substance crosses the layer from the apical side.

As for `Cc1cc(-c2nc(C(=O)Nc3cc4oc(N5CCOCC5)nc4nc3N3CCCC(F)C3)co2)ccn1` (configuration not stated), the remaining at 1 h, 1 µM in data set [1] was 89%; in data set [2], 91%; in data set [3], 67%. For the same compound, the Papp A→B at 2 h, 10 µM in data set [4] is 15.8 ×10⁻⁶ cm/s.
For `Cc1cc(-c2nc(C(=O)Nc3cc4oc(N5CCOCC5)nc4nc3C3CC3)co2)ccn1`, in that order: 13%, greater than 95%, 87% and 49.4 ×10⁻⁶ cm/s.
Regarding `Nc1ccc(-c2cccc(C(=O)Nc3ccc4nc(N5CCOCC5)oc4c3)n2)cn1`, the Papp A→B at 2 h, 10 µM in data set [4] is 21.4 ×10⁻⁶ cm/s.
Turning to `CCC1(O)CCCN(c2nc3nc(N4CCOCC4)oc3cc2NC(=O)c2coc(-c3ccnc(C)c3)n2)C1` (configuration not stated), the remaining at 1 h, 1 µM in data set [1] is 91%; in data set [2], greater than 95%; in data set [3], greater than 95%. The compound also displayed a Papp A→B at 2 h, 10 µM in data set [4] of 8.5 ×10⁻⁶ cm/s.
`O=C(Nc1cc2oc(N3CCOCC3)nc2nc1C1CC1)c1coc(N2CC[C@H](O)C2)n1`: the remaining at 1 h, 1 µM was greater than 95% in data set [1], greater than 95% in data set [2] and 90% in data set [3]. Also, the Papp A→B at 2 h, 10 µM in data set [4] was found to be 21 ×10⁻⁶ cm/s.

For the origin of these results see ChEMBL document CHEMBL4665913, “Discovery of CA-4948, an Orally Bioavailable IRAK4 Inhibitor for Treatment of Hematologic Malignancies” (ACS Med Chem Lett, 2020).
